Drawing on PubChem BioAssay AID248 (DTP/NCI, 2004), this text covers T/C for 21 molecules.

For the experiment, the system named is L1210 leukemia ip in BDF1 mice, survival T/C. The experiment in a line: NCI In Vivo Anticancer Drug Screen. Data for tumor model L1210 Leukemia (intraperitoneal) in B6D2F1 (BDF1) mice. Conditions: endpoint: mean survival time, higher = longer survival. In short, it runs like this: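 Value reflects the ratio of survival in compound-treated mice to survival in vehicle-treated controls, with both groups carrying the same transplanted tumor.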

Where [1] appears, read: dose: 100.0 mg/kg/injection, schedule: Q01DX009 (ip), vehicle: Klucel (hydroxypropylcellulose) (HPC).
The mark [2] stands for this setting: dose: 100.0 mg/kg/injection, schedule: Q04DX003 (ip), vehicle: Klucel (hydroxypropylcellulose) (HPC).
[3] abbreviates: dose: 200.0 mg/kg/injection, schedule: Q01DX009 (ip), vehicle: Klucel (hydroxypropylcellulose) (HPC).
[4] abbreviates: dose: 200.0 mg/kg/injection, schedule: Q04DX003 (ip), vehicle: Klucel (hydroxypropylcellulose) (HPC).
The mark [5] stands for this setting: dose: 400.0 mg/kg/injection, schedule: Q04DX003 (ip), vehicle: Klucel (hydroxypropylcellulose) (HPC).
[6] abbreviates: dose: 100.0 mg/kg/injection, schedule: Q01DX009 (ip), vehicle: saline.
[7] abbreviates: dose: 200.0 mg/kg/injection, schedule: Q01DX009 (ip), vehicle: saline.
Setting [8] is: dose: 100.0 mg/kg/injection, schedule: Q04DX003 (ip), vehicle: saline with Tween-80.
Where [9] appears, read: dose: 25.0 mg/kg/injection, schedule: Q04DX003 (ip), vehicle: saline.
[10] abbreviates: dose: 400.0 mg/kg/injection, schedule: Q01DX009 (ip), vehicle: saline with Tween-80.
Setting [11] is: dose: 75.0 mg/kg/injection, schedule: Q01DX001 (ip), vehicle: saline.
[12] abbreviates: dose: 200.0 mg/kg/injection, schedule: Q04DX003 (ip), vehicle: saline with Tween-80.
Where [13] appears, read: dose: 400.0 mg/kg/injection, schedule: Q04DX003 (ip), vehicle: saline with Tween-80.

Several values for one entry are separate records, joined by “and”; a condition that tells them apart may be missing. Identical values can stand only once. Toxic doses and inconclusive results are not listed.

For `O=C(Nc1ccc(F)cc1)Nc1cccc(C(=O)O)c1`, the T/C reads like this: under setting [1], 96 % of control; under setting [2], 96 % of control; under setting [3], 107 % of control; under setting [4], 100 % of control; (dose: 400.0 mg/kg/injection, schedule: Q01DX009 (ip), vehicle: Klucel (hydroxypropylcellulose) (HPC)) 95 % of control; under setting [5], 105 % of control.

In the case of `CCOC(=O)C(Cc1ccc(O)cc1)Nc1nc2ccccc2o1` (stereo unspecified), the T/C was 96 % of control (dose: 100.0 mg/kg/injection, schedule: Q01DX001 (ip), vehicle: carboxymethylcellulose (CMC)); 96 % of control (dose: 200.0 mg/kg/injection, schedule: Q01DX001 (ip), vehicle: carboxymethylcellulose (CMC)); 96 % of control (dose: 400.0 mg/kg/injection, schedule: Q01DX001 (ip), vehicle: carboxymethylcellulose (CMC)).

As to `NCCNC(=O)c1ccccc1`, the T/C is, setting by setting: under setting [6], 94 % of control; under setting [7], 100 % of control.

On to `CN=C(N)c1ccc(NC(=O)c2ccc(C(=O)Nc3ccc(C(N)=NC)cc3)c(Cl)c2)cc1`, for which the T/C (dose: 1.88 mg/kg/injection, schedule: Q01DX Z (ip), vehicle: saline) was 117 % of control; the T/C (dose: 7.5 mg/kg/injection, schedule: Q01DX Z (ip), vehicle: saline) was 252 % of control; the T/C (dose: 15.0 mg/kg/injection, schedule: Q01DX Z (ip), vehicle: saline) is 183 % of control; the T/C (dose: 60.0 mg/kg/injection, schedule: Q01DX Z (oral), vehicle: saline) was 105 % of control; the T/C (dose: 62.5 mg/kg/injection, schedule: Q## X010 (oral), vehicle: saline) is 102 % of control; the T/C (dose: 120.0 mg/kg/injection, schedule: Q01DX Z (oral), vehicle: saline) was 102 % of control. The T/C reads like this: (dose: 125.0 mg/kg/injection, schedule: Q## X010 (oral), vehicle: saline) 98 % of control; (dose: 240.0 mg/kg/injection, schedule: Q01DX Z (oral), vehicle: saline) 103 % of control; (dose: 500.0 mg/kg/injection, schedule: Q## X010 (oral), vehicle: saline) 102 % of control.

Turning to `O=C(Nc1ccccn1)Nc1ccc([N+](=O)[O-])cc1[N+](=O)[O-]`, the T/C runs as follows: (dose: 100.0 mg/kg/injection, schedule: Q04DX002 (ip), vehicle: Klucel (hydroxypropylcellulose) (HPC)) 108 % of control; (dose: 200.0 mg/kg/injection, schedule: Q04DX002 (ip), vehicle: Klucel (hydroxypropylcellulose) (HPC)) 104 % of control; (dose: 400.0 mg/kg/injection, schedule: Q04DX002 (ip), vehicle: Klucel (hydroxypropylcellulose) (HPC)) 97 % of control.

`O=C1c2ccccc2C(=O)N1CN1CCC(CCCC2CCN(CN3C(=O)c4ccccc4C3=O)CC2)CC1`: the T/C under setting [8] is 92 % of control.

On to `CSc1ccc(NCN2C(=O)c3ccccc3C2=O)cc1`, for which the T/C under setting [1] was 102 % of control and the T/C under setting [3] was 100 % of control.

On to `C/C=C/C(=O)C12CCCCCCCCCC(=C1N1CCCCC1)C(=O)CC2C` (stereo unspecified), for which the T/C runs as follows: (dose: 100.0 mg/kg/injection, schedule: Q01DX001 (ip), vehicle: saline) 93 % of control; under setting [6], 90 % of control; (dose: 200.0 mg/kg/injection, schedule: Q01DX001 (ip), vehicle: saline) 98 % of control; under setting [7], 92 % of control; (dose: 400.0 mg/kg/injection, schedule: Q01DX001 (ip), vehicle: saline) 98 % of control; (dose: 400.0 mg/kg/injection, schedule: Q01DX009 (ip), vehicle: saline) 98 % of control.

On to `N#CCCSP(=S)(Oc1ccccc1)Oc1ccccc1`, for which the T/C was 100 % of control (dose: 100.0 mg/kg/injection, schedule: Q01DX009 (ip), vehicle: other); 100 % of control (dose: 200.0 mg/kg/injection, schedule: Q01DX009 (ip), vehicle: other); 94 % of control (dose: 400.0 mg/kg/injection, schedule: Q01DX009 (ip), vehicle: other).

Regarding `CCCCCCC(=O)CCCCCC/C=C/CC(O)C(O)C(N)(CO)C(=O)O` (stereo unspecified), the T/C is 104 % of control (dose: 0.78 mg/kg/injection, schedule: Q04DX002 (ip), vehicle: saline with Tween-80); 104 % of control (dose: 1.56 mg/kg/injection, schedule: Q04DX002 (ip), vehicle: saline with Tween-80); 100 % of control (dose: 3.13 mg/kg/injection, schedule: Q04DX002 (ip), vehicle: saline with Tween-80).

Consider `CC[N+](C)(CC)CCCOC(=O)C(c1ccccc1)c1ccccc1`, for which the T/C (dose: 6.25 mg/kg/injection, schedule: Q04DX003 (ip), vehicle: saline) is 94 % of control; the T/C (dose: 12.5 mg/kg/injection, schedule: Q04DX003 (ip), vehicle: saline) is 96 % of control; the T/C under setting [9] is 96 % of control.

For `CSc1n[nH]c(N)n1`, the T/C is 92 % of control (dose: 100.0 mg/kg/injection, schedule: Q01DX009 (ip), vehicle: saline with Tween-80); 92 % of control (dose: 200.0 mg/kg/injection, schedule: Q01DX009 (ip), vehicle: saline with Tween-80); 92 % of control under setting [10].

Turning to `O=C(Sc1ccc2ccccc2c1CN1CCCCC1)c1ccc([N+](=O)[O-])cc1`, the T/C is 96 % of control (dose: 200.0 mg/kg/injection, schedule: Q01DX Z (ip), vehicle: methylcellulose (MC)); 94 % of control (dose: 225.0 mg/kg/injection, schedule: Q01DX Z (ip), vehicle: methylcellulose (MC)); 89 % of control (dose: 450.0 mg/kg/injection, schedule: Q01DX Z (ip), vehicle: methylcellulose (MC)); 96 % of control (dose: 675.0 mg/kg/injection, schedule: Q01DX Z (ip), vehicle: methylcellulose (MC)).

Take `COc1ccc(Cl)cc1C/C=N/NC(=O)C[N+](C)(C)C`: the T/C under setting [11] is 92 % of control.

As to `O=C(O)c1cc2ccccc2cc1O`, the T/C by setting is: (dose: 100.0 mg/kg/injection, schedule: Q04DX002 (ip), vehicle: gum acacia) 102 % of control; (dose: 200.0 mg/kg/injection, schedule: Q04DX002 (ip), vehicle: gum acacia) 94 % of control.

As to `N=C(N)SC/C=C/CSC(=N)N`, the T/C is, setting by setting: under setting [9], 106 % of control; (dose: 50.0 mg/kg/injection, schedule: Q04DX003 (ip), vehicle: saline) 96 % of control; (dose: 100.0 mg/kg/injection, schedule: Q04DX003 (ip), vehicle: saline) 103 % of control and 88 % of control.

With `Nc1cc(Cl)c2cccnc2c1O`, the T/C was 88 % of control (dose: 50.0 mg/kg/injection, schedule: Q04DX003 (ip), vehicle: saline with Tween-80); 98 % of control under setting [11]; 100 % of control under setting [8]; 96 % of control (dose: 150.0 mg/kg/injection, schedule: Q01DX001 (ip), vehicle: saline).

Turning to `Nc1cc([N+](=O)[O-])ccc1Nc1ccccc1`, the T/C is 93 % of control (dose: 25.0 mg/kg/injection, schedule: Q01DX009 (ip), vehicle: DMSO) and 89 % of control (dose: 100.0 mg/kg/injection, schedule: Q04DX003 (ip), vehicle: DMSO).

Consider `C=C(Br)CNC(=O)NCCN1CCOCC1`, for which the T/C runs as follows: under setting [8], 97 % of control; under setting [12], 111 % of control; under setting [13], 97 % of control.

For the molecule `Cc1ccc(Cl)cc1NC(=O)Nc1cccc(C(F)(F)F)c1`, the T/C runs as follows: (dose: 50.0 mg/kg/injection, schedule: Q01DX009 (ip), vehicle: saline with Tween-80) 97 % of control and 90 % of control; (dose: 100.0 mg/kg/injection, schedule: Q04DX002 (ip), vehicle: saline with Tween-80) 102 % of control and 88 % of control; under setting [8], 101 % of control; (dose: 200.0 mg/kg/injection, schedule: Q04DX002 (ip), vehicle: saline with Tween-80) 98 % of control and 90 % of control; under setting [12], 96 % of control; under setting [10], 105 % of control and 90 % of control. The T/C is, setting by setting: (dose: 400.0 mg/kg/injection, schedule: Q04DX002 (ip), vehicle: saline with Tween-80) 104 % of control and 91 % of control; under setting [13], 91 % of control.

As to `COc1ccc2c(c1)C13CCCCC1C(C2)N(CC1(c2ccccc2)CC1)CC3` (stereo unspecified), the T/C was 98 % of control under setting [1]; 96 % of control under setting [2]; 90 % of control under setting [3]; 93 % of control under setting [4]; 101 % of control under setting [5].
